From patent US11452720B2, “Crystalline polymorphs of the free base of 2-hydroxy-6-((2-(1-isopropyl-1H-pyrazol-5-yl)pyridin-3-yl)methoxy)benzaldehyde” (Global Blood Therapeutics, Inc., priority 2014, dated 2022)
Entries after “also recorded” stand apart in the source; their conditions may differ. Structures can show the parent of a compound that is named as a salt.

How the values were obtained:
Format in all cases: physicochemical
[1] = Dynamic vapor sorption (DVS) with post-DVS XRPD; details: for DVS weight loss from 95 to 5% RH: desorption 95 to 5% RH; for post-DVS XRPD result: material recovered from the DVS experiment; for DVS weight gain from 5 to 95% RH: sorption 5 to 95% RH
Experimental: Dynamic vapor sorption (DVS) data were collected on a VTI SGA-100 Vapor Sorption Analyzer. NaCl and PVP were used as calibration standards. Samples were not dried prior to analysis. Adsorption and desorption data were collected over a range from 5 to 95% RH at 10% RH increments under a nitrogen purge. The equilibrium criterion used for analysis was less than 0.0100% weight change in 5 minutes with a maximum equilibration time of 3 hours. Data were not corrected for the initial moisture content of the samples.

[2] = Chemical and physical stability evaluation of Free Base Form I (UPLC, XRPD)
Experimental: Three conditions were used; open to 25° C./60% RH, open to 40° C./75% RH, and closed to 60° C. Physical stability was evaluated by XRPD. Chemical stability was determined through UPLC and ^1H NMR, when applicable. Materials were tested after 1, 7, and 14 days of exposure.

[3] = Estimated transition temperature and relative thermodynamic stability of free base forms
From the text: Phase transitions of solids can be thermodynamically reversible or irreversible. Crystalline forms which transform reversibly at a specific transition temperature (T) are called enantiotropic polymorphs. If the crystalline forms are not interconvertable under these conditions, the system is monotropic (one thermodynamically stable form). Several rules have been developed to predict the relative thermodynamic stability of polymorphs and whether the relationship between the polymorphs is enantiotropic or monotropic. The heat of fusion rule is applied within this study. The heat of fusion rule states that if the higher melting form has the lower heat of fusion then the two forms are enantiotropic, otherwise they are monotropic.
The estimated transition temperature between two enantiotropically related forms can be calculated from their melt onsets and heats of fusion based on the equation shown below.

[4] = Ambient storage of Form II, reanalysis by XRPD; details: after 7 days
From the text: The form is known to be thermodynamically metastable, relative to Material N, at this condition; however, the kinetics of polymorph conversion may be slow at ambient conditions in the solid state.

[5] = Physical stability evaluation of Free Base Form II and Material N (modulated DSC / temperature and humidity exposure, then XRPD); details: for change in physical form by XRPD: 40° C./75% RH, 80° C./80% RH for 9 days; for change in physical form by XRPD after modulated DSC: underlying heating rate 0.02° C. min^−1
Experimental: DSC was modulated at low underlying heating rate, followed by X-ray powder diffraction. A low underlying heating rate was used of 0.02° C. min^−1. The temperature was 80° C. for form N and 90° C. for form II. Exposure was essentially isothermal, covering a temperature range with sensitivity to detect changes in physical form. The resultant materials were examined by X-ray powder diffraction.
Forms II and N were exposed to 40° C./75% relative humidity (RH), 80° C., 80° C./80% RH for 9 days followed by X-ray powder diffraction.

[6] = Physical stability of the HCl salt exposed to water (disproportionation, XRPD)
Experimental: Solutions were prepared by adding enough solids to a given solvent so that excess solids were present. The mixture was then agitated in a sealed vial at either ambient or an elevated temperature. After a given amount of time, the solids were isolated for analysis.
(§1) The HCl salt (termed “HCl Form I”) was subjected to various stress conditions and monitored by XRPD to evaluate physical stability. […] Disproportionation is further evident with wet milling or in direct contact with water (e.g. slurry) as shown by the presence of Free Base Forms I or II, identified by XRPD. […] (after 12 hrs), 40° C. (after 6 hrs), and at 40° C./48 mmHg (after 6 hrs). • Free Base Material C becomes evident at more extreme conditions involving elevated temperatures. Heating HCl Form I up to 125° C. induces the loss of acidic volatiles (judged visually by use of pH paper held above sample). […] Exposing the HCl salt to 60° C. under vacuum for 6 days provides the same result. The nature of Material C is not established

[7] = Physical stability of the HCl salt exposed to elevated temperature and/or vacuum (XRPD)
Experimental: Selected materials were stressed at elevated related humidity and/or temperature. Relative humidity jars (saturated salt solutions used to generate desired relative humidity) were utilized to store selected samples. The following relative humidity jars were utilized during evaluation: 75% RH (NaCl) and 60% (NaBr), to investigate the effects of humidity. Temperatures utilized were ambient, 30, 40, 60, and 100-125° C.
Selected materials were stressed under reduced pressure for a set time period. Initial stressing was conducted with the in-house vacuum system with absolute pressure readings <500 mTorr, typically 30 to 50 mTorr (0.030 to 0.05 mm Hg). Additional vacuum stressing was conducted at 48 mmHg utilizing a portable lab vacuum and bleed to simulate conditions similar to those expected during process.
as §1

[8] = Physical stability of the HCl salt with grinding (XRPD); details: 30 min
Experimental: Selected material was milled utilizing a Reitch Mill. The material was loaded into an agate lined milling vessel followed by the addition of an agate ball. The vessel was then placed on to the mill and milled for approximately 30 minutes at frequency of […]. The milling was stopped approximately every 10 minutes and material scraped from the wall before further milling.

[9] = Extended solvent mediated maturation of form II / form N mixtures in hexane; details: temperatures of 20° C. and lower
Experimental: Extended solvent mediated maturation studies were conducted with 1:1 w/w mixtures of polymorphic form II and form N. Hexane provided a good medium for solvent assessments. The temperatures used include −20° C., −10° C., 0° C., 10° C., 20° C., 30° C., 40° C. and 50° C. […] Solids derived from maturation at −20° C., −10° C., 0° C., 10° C., 20° C. were analyzed by X-ray powder diffraction.

[10] = Disproportionation of the sulfate salt when precipitated with water; details: from solvents such as dimethyl sulfoxide and methanol when precipitated with water
From the text: This invention arises in part out the discovery that an HCl salt of Compound 1 disproportionates or loses HCl, and a disproportionation of the HCl salt of Compound 1 in water generates the free base and disproportionation was facile upon exposure to elevated humidity, with wet milling, and in direct contact with water (e.g. slurry). The sulfate salt of Compound 1 also disproportionates from certain solvents such as dimethyl sulfoxide and methanol when precipitated with water. The volatilization of HCl was evident within hours of exposure to drying conditions. For example, partial conversion to the free base was observed within 12 hours at 30° C. Accordingly, the free base of Compound 1 provides a stabler chemical entity compared to the corresponding HCl or sulfate and such other salt.

Structure (SMILES): CC(C)n1nccc1-c1ncccc1COc1cccc(O)c1C=O [Form I, 2-hydroxy-6-((2-(1-isopropyl-1H-pyrazol-5-yl)pyridin-3-yl)methoxy)benzaldehyde]
- hygroscopicity by DVS isotherm [1]: not hygroscopic
- weight gain and loss through sorption/desorption ([1]; DVS): 0.2%
- DVS weight loss from 95 to 5% RH [1]: 0.22% loss from 95 to 5% RH
- DVS weight loss upon equilibration at 5% RH ([1]; equilibration at 5% RH): 0.02% loss upon equilibration at 5% RH
- post-DVS XRPD result [1]: predominately Free Base Form I with a few additional peaks; also recorded: Free Base Form I + other Free Base Material
- DVS weight gain from 5 to 95% RH [1]: 0.22% gain from 5 to 95% RH
- chemical stability: level of impurities by UPLC ([2]; open 25° C./60% RH, open 40° C./75% RH, closed 60° C., after 14 days): did not rise significantly
- physical stability by XRPD ([2]; open to 25° C./60% RH, 1, 7 and 14 days): remained unchanged
- physical stability by XRPD ([2]; open to 40° C./75% RH and closed to 60° C., after 7 days): Free Base Form II was observed

Structure (SMILES): CC(C)n1nccc1-c1ncccc1COc1cccc(O)c1C=O [Form II, 2-hydroxy-6-((2-(1-isopropyl-1H-pyrazol-5-yl)pyridin-3-yl)methoxy)benzaldehyde]
- Relative Stability ([3]; Above T^N-II): (II > I)
- Relative Stability ([3]; Below 6° C.): N > II
- Relative Stability ([3]; Between 6° C. and T^N-II): N > II > I
- XRPD after storage [4]: remained unchanged; also recorded: Free Base Form II
- change in physical form by XRPD ([5]; 80° C.): No changes in physical form
- change in physical form by XRPD after modulated DSC ([5]; 90° C.): No changes in physical form

Structure (SMILES): CC(C)n1nccc1-c1ncccc1COc1cccc(O)c1C=O [HCl salt of Compound 1, 2-hydroxy-6-((2-(1-isopropyl-1H-pyrazol-5-yl)pyridin-3-yl)methoxy)benzaldehyde]
- disproportionation on contact with water ([6]; contact with water): Immediate disproportionation occurs; also recorded: disproportionate immediately
- XRPD Result ([6]; vacuum dried, about 1 day): FB I
- XRPD Result ([6]; water slurry, about 5 min): Free base (FB) I
- XRPD Result ([6]; water slurry, about 5 min, listed as HCl salt): Free Base Form I
- XRPD Result ([6]; water slurry, about 6 days): FB I + FB II
- DVS weight loss from 95 to 5% RH [1]: 0.09% loss from 95 to 5% RH
- DVS weight gain upon equilibration at 5% RH ([1]; equilibration at 5% RH): 0.03% gain upon equilibration at 5% RH
- post-DVS XRPD result [1]: HCl I + Free Base Form I
- post-DVS XRPD result ([1]; listed as HCl salt): disproportionation occurred
- DVS weight gain from 5 to 95% RH [1]: 0.10% gain from 5 to 95% RH
- time after which conversion to Free Base Form I was observed by XRPD ([7]; 30° C.): 12 h
- XRPD Result ([7]; 30° C., 6 hrs): HCl I
- XRPD Result ([7]; 30° C., 12 hrs): HCl I + FB I
- XRPD Result ([7]; 30° C., 24 hrs): HCl I + FB I
- time within which partial conversion to the free base was observed ([7]; 30° C., drying conditions): ≤ 12 h
- time after which conversion to Free Base Form I was observed by XRPD ([7]; 40° C.): 6 h
- XRPD Result ([7]; 40° C. vacuum, 6 hrs): HCl I + FB I
- XRPD Result ([7]; 40° C. vacuum, 12 hrs): HCl I + FB I
- XRPD Result ([7]; 40° C. vacuum, 24 hrs): HCl I + FB I
- XRPD Result ([7]; 40° C., 6 hrs): HCl I + FB I
- XRPD Result ([7]; 40° C., 12 hrs): HCl I + FB I
- XRPD Result ([7]; 40° C., 24 hrs): HCl I + FB I
- time after which conversion to Free Base Form I was observed by XRPD ([7]; 40° C./48 mmHg): 6 h
- XRPD Result ([7]; 60° C. vacuum, 6 days): HCl I + FB I +
- XRPD Result ([7]; 60° C. vacuum, 6 days, listed as HCl salt): same result
- XRPD Result ([7]; 60° C., 6 days): HCl I + FB I
- XRPD Result ([7]; 100 to 125° C., 20 min): HCl I + FB I +
- XRPD Result ([7]; 100 to 125° C., 20 min, listed as HCl Form I): mixture of HCl Form I, Free Base Form I, and Free Base Material C
- XRPD Result ([7]; RT vacuum, 6 days): HCl I + FB I
- XRPD Result ([8]; dry): HCl I
- XRPD Result ([8]; wet): HCl I + FB I

Structure (SMILES): CC(C)n1nccc1-c1ncccc1COc1cccc(O)c1C=O [Material N, 2-hydroxy-6-((2-(1-isopropyl-1H-pyrazol-5-yl)pyridin-3-yl)methoxy)benzaldehyde]
- Relative Stability ([3]; Below 6° C.): N > II
- Relative Stability ([3]; Between 6° C. and T^N-II): N > II > I
- relative thermodynamic stability [9]: thermodynamically more stable than form II
- change in physical form by XRPD ([5]; 80° C.): No changes in physical form
- change in physical form by XRPD after modulated DSC ([5]; 80° C.): No changes in physical form

Structure (SMILES): CC(C)n1nccc1-c1ncccc1COc1cccc(O)c1C=O [sulfate salt of Compound 1, 2-hydroxy-6-((2-(1-isopropyl-1H-pyrazol-5-yl)pyridin-3-yl)methoxy)benzaldehyde]
- disproportionation of the salt [10]: disproportionates
